Results: patent US4169197A, “6-Deoxyneamines aminoglycoside compounds” (The Upjohn Company, priority 1978, dated 1979)
Values after ≈ are worked out from the molar mass of the structure shown. Like-named read-outs stand apart in the source and are kept apart here.

What was measured:
Test in all cases: standard microplate test in BHI Agar
Format in all cases: cell-based
[1] = test system: Ps. aeruginosa UC 95; conditions: Pseudomonas aeruginosa, UC95, 20 h
Procedure, shortened: (§1)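 End points are read after 20 hours of incubation at 37°. The medium is Brain Heart Infusion agar in a standard microplate format. Compounds are tested at 1 mg./ml. and at dilutions of that level.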

[2] = test system: S. faecalis UC 694; conditions: Enterococcus faecalis, UC694, 20 h
Procedure, shortened: as §1

[3] = test system: S. marcescens UC 131; conditions: Serratia marcescens, UC131, 20 h
Procedure, shortened: as §1

[4] = read-out: Minimal Inhibitory Concentration
[5] = read-out: Minimum Inhibitory Concentration

SMILES: NC[C@H]1O[C@H](O[C@H]2[C@H](O)[C@@H](O)[C@H](N)C[C@@H]2N)[C@H](N)[C@@H](O)[C@@H]1O [Neamine]
- MIC [1, 4]: > 500 µg/mL
- MIC [1, 5]: > 500 µg/mL
- MIC [2, 4]: > 500 µg/mL
- MIC [2, 5]: > 500 µg/mL
- MIC [3, 4]: 250 µg/mL (≈ 776 µM)
- MIC [3, 5]: 250 µg/mL (≈ 776 µM)
